Measurements as given in patent EP4643869A1, “USE OF GNRH ANTAGONISTS SUCH AS TEVERELIX TO TREAT ACUTE URINARY RETENTION” (Antev Limited, priority 2024, dated 2025).
Structures can show the parent of a compound that is named as a salt. Where a SMILES comes first, the peptide text is derived from it. [ ]: non-standard residue; d: D form. dPhe(4-Cl) = N[C@H](Cc1ccc(Cl)cc1)C(=O)O; d2Nal = N[C@H](Cc1ccc2ccccc2c1)C(=O)O; d(hCit) = NC(=O)NCCCC[C@@H](N)C(=O)O; Lys(iPr) = CC(C)NCCCC[C@H](N)C(=O)O; d3Pal = N[C@H](Cc1cccnc1)C(=O)O

Columns and labels:
testosterone = test: PKPD of single-dose teverelix-TFA, subcutaneous or intramuscular; format: in vivo; details: single dose of 120 mg subcutaneous
[1] = Plasma concentrations of teverelix (Experiment I); format: in vivo, human; details: 60 mg s.c. on Day 1 and Day 3
Protocol: (§1) The study comprised two periods: a four-week single-blind placebo run-in period for all patients to remove any placebo responders and reduce between-patient variability in baseline measurements. This was followed by a 16-week randomised, double-blind, placebo-controlled, parallel group period for eligible patients. Following screening (Day-28), patients entered the placebo run-in period and received two subcutaneous injections of placebo, 48 h apart. During this period, one visit was planned for training purposes (e.g., IPSS). At the end of the placebo run-in period, patients still meeting the eligibility criteria were randomised to receive two subcutaneous injections of 60 mg teverelix or placebo, 48 h apart, on day 1 and day 3. Teverelix was supplied as a freeze-dried powder that was reconstituted with 5% mannitol in water for injection. Corresponding placebo formulations, without teverelix-TFA, were also prepared. Injections were given in the abdomen. Patients attended follow-up visits for up to 16 weeks.
Blood samples were gathered in the morning on Day 1 and Day 3 prior to dosing, along with assessments at the conclusion of Weeks 1, 2, 3, 4, 8, 12, and the final evaluation at Week 16, for the measurement of teverelix, testosterone, and dihydrotestosterone (DHT). Plasma concentrations of teverelix were analysed to delineate the release profile of the active substance from teverelix.

[2] = tested on: patients 50 years or over, with BPH and bothersome voiding symptoms; test: Safety: adverse events (Experiment I); format: in vivo, human
Protocol: as §1
Safety included the assessment of adverse events (AEs), vital signs (supine blood pressure and pulse), electrocardiograms (ECG), and clinical laboratory parameters (haematology, clinical chemistry, and urinalysis). Drug-related AEs were defined as those with a relationship to study drug of `likely' or `not assessable'.

male and female subjects = test: Safety across 16 Phase 1 and Phase 2 clinical trials; format: in vivo; details: 1,117 injections s.c. or i.m.; no SUSARs reported
Protocol: Teverelix-TFA has been studied in 450 male and female subjects in 16 Phase 1 and Phase 2 clinical trials. Teverelix-TFA has been tested in various dosing regimens in Phase 2 clinical trials in 97 patients with BPH.
Administrations have ranged from a single dose of 0.125 mg up to 180 mg repeat doses of teverelix for three consecutive days.

[3] = tested on: patients 50 years or over, with BPH and bothersome voiding symptoms; test: Investigator rating of efficacy and tolerability at final assessment (Experiment I); format: in vivo, human
Protocol: This was a multicentre (n=8), randomised, double-blind, placebo-controlled study in treatment of patients 50 years or over, with BPH and bothersome voiding symptoms characterized as an International Prostate Symptom Score (IPSS score ≥13) and a uroflow <13 mL/sec for a voided volume ≥150 mL. Exclusion criteria included an urgent need for prostate surgery, elevated prostate specific antigen (PSA) levels above the upper limit of normal relative to age, major organ dysfunction, prior surgical treatment of the prostate or bladder, and a large residual urine volume (>350 mL).
The study comprised two periods: a four-week single-blind placebo run-in period for all patients to remove any placebo responders and reduce between-patient variability in baseline measurements. This was followed by a 16-week randomised, double-blind, placebo-controlled, parallel group period for eligible patients. Following screening (Day-28), patients entered the placebo run-in period and received two subcutaneous injections of placebo, 48 h apart. During this period, one visit was planned for training purposes (e.g., IPSS). […]
At the final assessment, the investigator assessed efficacy and tolerability as either very good/good, satisfactory, poor/insufficient, or not assessable.

[4] = tested on: patients with a first episode of AUR related to BPH; details: alfuzosin 10 mg once daily; placebo 39.7%; cited from earlier work

Structure (SMILES)	PKPD profile versus two subcutaneous injections of 60 mg two days apart (testosterone)	time until which teverelix plasma concentrations kept rising [1]	patients reporting an AE likely drug-related or not assessable ([2]; 22 patients of 41) [%]	intensity of drug-related AEs ([2]; in vivo)	patients with drug-related hyperuricaemia ([2]; in vivo)	patients with drug-related urinary retention ([2]; in vivo) [patient]	serious AEs, assessed as not drug related ([2]; in vivo)	injection site induration ([2]; share of patients) [%]	pain (AE) ([2]; share of patients) [%]	subcutaneous injection site reactions ([2]; share of patients) [%]	overall safety and tolerability (male and female subjects)	patients rated by the investigator as having very good/good tolerability [3]	success rate after 6 months (successful TWOC and no AUR relapse nor any need for surgery) [4] [%]
CC(=O)N[C@H](Cc1ccc2ccccc2c1)C(=O)N[C@H](Cc1ccc(Cl)cc1)C(=O)N[C@H](Cc1cccnc1)C(=O)N[C@@H](CO)C(=O)N[C@@H](Cc1ccc(O)cc1)C(=O)N[C@H](CCCCNC(N)=O)C(=O)N[C@@H](CC(C)C)C(=O)N[C@@H](CCCCNC(C)C)C(=O)N1CCC[C@H]1C(=O)N[C@H](C)C(N)=O [teverelix, N-Ac-d-Nal^1,d-pCl-Phe^2,d-Pal^3,d-(Hci)^6,Lys(iPr)^8,d-Ala^10 trifluoroacetate] (Ac-[d2Nal][dPhe(4-Cl)][d3Pal]SY[d(hCit)]L[Lys(iPr)]P[dA]-NH2)	comparable	until the end of Week 3	53.7	mild intensity	one patient	1	cholelithiasis/pancreatitis	17.1	2.4	31.7	safe and well-tolerated	all patients	
COc1cc2nc(N(C)CCCNC(=O)C3CCCO3)nc(N)c2cc1OC (stereo not shown) [alfuzosin]													43.5
